In patent US20070254903A1, “Novel Spiroindoline or Spiroisoquinoline Compounds, Methods of Use and Compositions Thereof” (ARENA PHARMACEUTICALS, INC., priority 2003, published 2007):

What was measured:
[1] = tested on: isolated adult rat hearts; assay: Ischemia-Reperfusion Assay 1 (Langendorff apparatus); conditions: 10 μM; 30 min ischemia, 30 min reperfusion; compared to vehicle; FIG. 2
Experimental: Male Sprague-Dawley rats (300-350 g body weight) were anesthetized with pentobarbital sodium (50 mg/kg IP) then heparin (400 IU IP) was administered 10 minutes prior to surgery. The chest wall was opened and the heart was rapidly excised and immediately placed into ice-cold Krebs-Henseleit (KH) buffer (118 mM NaCl, 4.7 mM KCl, 1.2 mM MgSO4, 1.2 mM KH2PO4, 1.5 mM CaCl2, 25 mM NaHCO3, 11 mM glucose, 1 mM pyruvate, and 0.005 mM EDTA) to produce cardiac arrest. The aorta was then cannulated and the heart retrogradely perfused with KH buffer maintained at 37° C. in a reservoir bubbled with 95% O2/5% CO2 (pH7.4) on the Langendorff apparatus at a constant pressure of 80 mmHg. Myocardial temperature was maintained at 37° C. by partially submerging the heart into a water-jacketed chamber filled with KH buffer. A water filled latex balloon attached to a metal cannula and inserted into the left ventricle via the mitral valve and connected to a pressure transducer (Powerlab, ADInstruments, Inc) was used for measurement of left ventricular pressure. The balloon was initially inflated to an end-diastolic pressure of 10 mmHg. […] The difference between peak-systolic and end diastolic pressures, or left ventricular developed pressure (LVDP) was calculated as an index of contractile function and measured just prior to ischemia and at the end of reperfusion. […]

human Mas receptor = biological target: T1, human Mas receptor (Homo sapiens, UniProt P04201); assay: Mas receptor IP3 assay (inverse agonist assay); assay type: cell-based
T1 construct: expressed in transfected cells
T1 sequence (P04201 1-325): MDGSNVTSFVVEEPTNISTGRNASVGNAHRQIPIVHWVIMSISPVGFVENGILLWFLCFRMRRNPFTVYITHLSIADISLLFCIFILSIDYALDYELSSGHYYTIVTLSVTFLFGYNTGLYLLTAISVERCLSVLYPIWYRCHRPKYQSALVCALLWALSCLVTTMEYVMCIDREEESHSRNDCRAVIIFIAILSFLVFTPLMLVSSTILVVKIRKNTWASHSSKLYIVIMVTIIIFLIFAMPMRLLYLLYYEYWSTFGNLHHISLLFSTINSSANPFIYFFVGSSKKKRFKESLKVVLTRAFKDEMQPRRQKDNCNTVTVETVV
Experimental: The Mas receptor IP3 assay was performed using a mammalian cell line (HEK293) which was transfected with a plasmid containing the human Mas receptor and selected for stable expression of the receptor. For the inverse agonist assay, higher levels of Mas receptor constitutive activity were desired. To achieve this, Mas receptor expression levels were increased by transiently transfecting the same Mas receptor stable cell line with additional human Mas receptor plasmid DNA following standard procedures. These cells were used in the Mas receptor IP3 assay approximately 24 hours post-transfection.
Cells were split into 96-well plates (50,000 cells/well) and allowed to attach for a period of 6 hours. The growth medium was then replaced with medium supplemented with 4 μCi/ml [^3H]myo-inositol (100 μl; Perkin Elmer Life Sciences) and the cells were allowed to incubate for approximately 20 hours. Test compounds were serially diluted in inositol-free media containing 10 mM LiCl. The media in the plates was removed by aspiration, replaced with these test compound solutions and incubated at 37° C. for 1 hour. Following this incubation, the media was removed by aspiration and replaced with buffer containing 0.1M formic acid. The plates were then frozen overnight at −80° C. to achieve complete cell lysis.
The following day, the assay plates were thawed at room temperature. The thawed contents were then transfered to 96-well filter plates (Millipore, Multiscreen) pre-loaded with resin (Biorad, AG1-X8 100-200 mesh, formate form). The plate was filtered using a vacuum manifold and the resin was washed multiple times with water. An elution buffer was then applied (200 μl, 0.2M Ammonium formate/0.1M formic acid) and the resulting eluent was collected, under vacuum, in a 96-well collection plate. Aliquots of the eluent (80 μl) were transferred to filter plates (Whatman, Unifilter GF/C) and dried in a 45° C. oven overnight. Dried plates were counted on a scintillation counter following the addition of an appropriate scintillant (Perkin Elmer Life Sciences, Optiphase Supermix or Hi-Safe 3).

[2] = tested on: isolated adult rat hearts; assay: Ischemia-Reperfusion Assay 2 (Langendorff apparatus)
Experimental: Male Sprague-Dawley rats (300-350 g body weight) were anesthetized with Inactin (100 mg/kg IP) 20 minutes prior to surgery. The chest wall was opened and the heart was rapidly excised and immediately placed into ice-cold Krebs-Henseleit (KH) buffer (118 mM NaCl, 4.7 mM KCl, 1.2 mM MgSO4, 1.2 mM KH2PO4, 1.5 mM CaCl2, 25 mM NaHCO3, 11 mM glucose […], and 0.005 mM EDTA) to produce cardiac arrest. The aorta was then cannulated and the heart retrogradely perfused with KH buffer maintained at 37° C. in a reservoir bubbled with 95% O2/5% CO2 (pH7.4) on the Langendorff apparatus at a constant pressure of 70 mmHg. Myocardial temperature was maintained at 37° C. by partially submerging the heart into a water-jacketed chamber filled with KH buffer. A water filled latex balloon attached to a metal cannula and inserted into the left ventricle via the mitral valve and connected to a pressure transducer (Powerlab, ADInstruments, Inc) was used for measurement of left ventricular pressure. The balloon was initially inflated to an end-diastolic pressure of 10 mmHg. After allowing 20 minutes for equilibration, rat hearts were subjected to 10 minutes of KH buffer containing drug or vehicle followed by 30 minutes of ischemia followed by 30 minutes of reperfusion. The difference between peak-systolic and end diastolic pressures, or left ventricular developed pressure (LVDP) was calculated as an index of contractile function and measured just prior to ischemia and at 10, 20 and 30 minutes of reperfusion. Percent recovery of LV function [(LVDP post reperfusion/LVDP pre-ischemia)[…]] was averaged across 5 vehicle and 4 drug treated hearts and one-way anova with Newman-Keuls Multiple Comparison Test was used to determine statistical significance.
Epicardial electrogram recordings were also taken from the isolated rat hearts used in FIGS. 3 and 4. Briefly, silver wire electrodes were placed on the right atrium and the apex of the left ventricle, allowing an epicardial electrogram to be recorded. […]

C=CCN1CCC2(CC1)CN(C(=O)c1cccc(F)c1F)c1ccc(F)cc12 [Compound 75, 1′-(allyl)-1,2-dihydro-5-fluoro-1-(2,3-difluoro-benzoyl)-spiro[3H-indole-3,4′-piperidine]]
percent recovery of left ventricle function [1]: significant increase in percent recovery of left ventricle function | IC50 (human Mas receptor; HEK293 cells over-expressing human Mas receptor, average from several experiments): 298 nM | IC50 (human Mas receptor; representative experiment, FIG. 1): 225 nM | left ventricle function after reperfusion ([2]; 30 μM, 30 min ischemia, 30 min reperfusion, compared to vehicle, FIG. 3): significant increase in left ventricle function after reperfusion | end diastolic pressure (EDP), ischemic contracture ([2]; 30 μM, compared to vehicle, FIG. 4): significant decrease in end diastolic pressure | early reperfusion arrhythmias (hearts positive) ([2]; epicardial electrogram, first 5 minutes of reperfusion, FIG. 5): none of the four hearts
